The results in this text go back to patent publication US8741892B2, “Compounds” (Boehringer Ingelheim International GmbH, priority 2011, dated 2014).

The structures appear in SMILES notation.

The target of this test is T1, human recombinant mGluR5 (Homo sapiens, UniProt P41594).
T1 construct: expressed in transfected cells; host or cells: HEK 293
T1 sequence (P41594 21-1212): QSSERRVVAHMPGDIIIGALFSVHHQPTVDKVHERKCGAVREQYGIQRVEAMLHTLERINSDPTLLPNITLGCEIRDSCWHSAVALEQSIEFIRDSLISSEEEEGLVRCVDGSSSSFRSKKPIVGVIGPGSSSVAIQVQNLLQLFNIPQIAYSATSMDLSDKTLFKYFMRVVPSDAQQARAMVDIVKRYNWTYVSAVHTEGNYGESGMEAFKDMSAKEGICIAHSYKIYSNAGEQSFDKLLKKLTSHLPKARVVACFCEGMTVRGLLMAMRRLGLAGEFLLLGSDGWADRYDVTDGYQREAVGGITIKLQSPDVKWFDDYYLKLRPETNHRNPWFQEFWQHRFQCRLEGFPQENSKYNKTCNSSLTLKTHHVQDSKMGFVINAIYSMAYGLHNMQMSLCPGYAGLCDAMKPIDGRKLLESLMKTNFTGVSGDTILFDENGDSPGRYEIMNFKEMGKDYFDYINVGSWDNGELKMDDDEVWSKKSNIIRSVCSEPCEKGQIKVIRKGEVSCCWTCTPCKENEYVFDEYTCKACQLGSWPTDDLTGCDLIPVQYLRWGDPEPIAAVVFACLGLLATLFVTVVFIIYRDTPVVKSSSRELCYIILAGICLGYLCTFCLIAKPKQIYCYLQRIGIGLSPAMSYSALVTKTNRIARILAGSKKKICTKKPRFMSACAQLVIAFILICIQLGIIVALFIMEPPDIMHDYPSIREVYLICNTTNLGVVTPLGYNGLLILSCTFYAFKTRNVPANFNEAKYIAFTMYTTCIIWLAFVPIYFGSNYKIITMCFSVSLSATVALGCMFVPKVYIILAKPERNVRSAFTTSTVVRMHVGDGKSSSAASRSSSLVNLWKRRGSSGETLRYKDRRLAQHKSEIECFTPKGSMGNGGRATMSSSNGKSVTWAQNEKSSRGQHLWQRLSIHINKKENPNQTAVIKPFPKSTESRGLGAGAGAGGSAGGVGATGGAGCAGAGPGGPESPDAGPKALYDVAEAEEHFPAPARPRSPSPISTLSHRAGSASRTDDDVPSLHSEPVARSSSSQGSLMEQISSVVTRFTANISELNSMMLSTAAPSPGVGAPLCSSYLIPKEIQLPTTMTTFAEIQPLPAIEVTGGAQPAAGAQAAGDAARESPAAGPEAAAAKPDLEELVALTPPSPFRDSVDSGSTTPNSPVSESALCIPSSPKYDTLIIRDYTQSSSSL
The experiment in a line: positive modulation of mGluR5, calcium based FLIPR assay. Particulars: HEK 293 cell line expressing human recombinant mGluR5; EC50 of the modulation from peak Ca fluorescence signal after glutamate at approx. 5% basal stimulation. As to the method:
The positive modulation of mGluR5 is measured in a HEK 293 cell line expressing human recombinant mGluR5 and is detected with calcium based FLIPR assay. The cells are cultured with DMEM supplemented with 10% FCS, 2 μg/mL tetracycline, 100 μg/mL hygromycin and 500 μg/mL geneticin. The cell culture media is exchanged for tetracycline-free cell culture media 3-7 days before the assay. One day before the assay the cell culture medium is exchanged to DMEM without glutamine and phenol red and supplemented with 10% FCS, 100 μg/mL hygromycin and 500 μg/mL geneticin. On the assay day, the medium of the subconfluent cultures is removed and the cells are detached by addition of 2.5 ml EDTA (0.02%) per 175 cm2 culture flask for 1 minute. The cells are resuspend in Ringer solution (140 mM NaCl, 5 mM KCl, 2.5 mM CaCl2, 1.5 mM MgCl2, 5 mM Glucose, 10 mM Hepes; adjusted to pH 7.4 with NaOH), pooled and Ringer solution added to adjust the volume to 50 mL. The cell suspension is centrifuged for […] at 1500 U/min (425 g). The supernatant is removed and the cells washed a second time with 50 ml fresh Ringer solution and centrifuged again as before. The supernatant is again removed and the pellet resuspended in Ringer solution to 1,000,000 cells/ml (1×10^6 cells/mL). The cells are plated onto BD BioCoat Poly-D-Lysine 384 well plates (20.000 cells/well; 20 μl/well). The lid covered plates are then incubated until use at 37° C./10% CO2. For dye loading, 20 μl of Calcium-4 assay kit solution (prepared according to the manufacturer's description in Ringer solution) are added to the cells and the plates are incubated for […] 37° C. and then […] at room temperature.
Controls, Compound Dilution and Assay Execution:
Each assay plate contained wells with “high” and “low” controls:
Low controls 1% DMSO/ringer solution+basal glutamate activation (defined as 100% CTL).
High controls 10 μM CDPPB+basal glutamate activation (defined as 200% CTL).
Test compounds are dissolved and diluted in DMSO to 100-fold the desired concentrations. In a second step, the compounds are diluted in Ringer solution such that the compounds are 4-fold more concentrated than the desired final assay concentration. The final DMSO concentration was 1%.
20 μl of each compound solution are then transferred to the assay plate and the Ca2+ kinetic is measured to determine any intrinsic compound activity. After 5 mM incubation in the FLIPR device, the second stimulation with 20 μl of glutamate in Ringer solution (glutamate concentration adjusted to approximately 5% basal stimulation of the maximal possible glutamate effect) is added and the kinetic Ca2+ response of the wells was measured for the modulation effect.
The peak height of the Ca release related fluorescence signal (9-66) is used for the EC50. The EC50 of the modulation is calculated over a nonlinear regression with GraphPad Prism (Table 1).
Usually EC50 stands for the concentration at which the effect is half-maximal. In the case of `Cc1nnc(N2CCN(C(=O)Cn3nc(-c4ccc(OC(F)F)cc4)cc3-c3ccccc3)CC2)o1` [Example 7.02.225], the EC50 turned out to be 17 nM. Next, `COc1ccc(-c2cc(C(C)C)n(CC(=O)N3CCc4ccc(OC)cc4CC3)n2)cc1` [Example 7.02.044]: 735 nM; `Cc1nnc(C2=CCN(C(=O)Cn3nc(-c4ccc(C)c(C)c4)cc3-c3ccccc3)CC2)o1` [Example 7.02.114]: 29 nM.

With `CCc1nnc(C2CCN(C(=O)Cn3nc(-c4ccc(F)c(C)c4)cc3CC)CC2)o1` [Example 7.02.219], the EC50 was determined as 209 nM.

Consider `CCCc1cc(-c2ccc(F)c(C)c2)nn1CC(=O)N1CCC(c2ncc(OC)cn2)CC1` [Example 7.02.069], for which the concentration giving a half-maximal response (EC50) stood at 187 nM. For `Cc1cnc(C2=CCN(C(=O)Cn3nc(-c4cccc(C#N)c4)cc3-c3ccccc3)CC2)o1` [Example 7.02.188] the value was 19 nM; for `CCc1cc(-c2ccc(C)c(C)c2)nn1CC(=O)N1Cc2nc(C)sc2C1` [Example 7.02.075], 318 nM. For `CCc1cc(-c2ccc(C)c(C)c2)nn1CC(=O)N1CC=C(c2cc(OC)ncn2)CC1` [Example 7.02.078] the value was 232 nM; for `Cc1nnc(N2CCN(C(=O)Cn3nc(-c4ccc(F)c(C)n4)cc3-c3ccccc3)CC2)o1` [Example 7.02.179], 236 nM; for `CCc1cc(-c2cccc(Cl)c2)nn1CC(=O)N1CCc2nc(C)sc2CC1` [Example 7.02.109], 61 nM.

`COc1cccc(N2CCN(C(=O)Cn3nc(-c4ccccc4)cc3-c3ccccc3)CC2=O)c1` [Example 7.01.020]: the EC50 came to 258 nM. On to `Cc1cccc(-c2cc(-c3ccccc3)n(CC(=O)N3CCC(c4nnc(C)o4)CC3)n2)c1` [Example 7.02.197], for which the EC50 turned out to be 90 nM. Next, `CCCc1cc(-c2ccc(F)c(C)c2)nn1CC(=O)N1CCN(c2cccc(OC)c2)C(=O)C1` [Example 7.02.032]: 37 nM; `COc1cc(-c2cc(-c3ccccc3)n(CC(=O)N3CCC(c4nnc(C)o4)CC3)n2)ccc1F` [Example 7.02.151]: 211 nM; `O=C(Cn1nc(-c2ccccc2)cc1-c1ccccc1)N1CCN(c2cccc(F)c2)C(=O)C1` [Example 7.01.034]: 398 nM.

On to `Cc1cc(-c2cc(-c3ccccc3)n(CC(=O)N3CCN(C(=O)Oc4ccccc4)CC3)n2)ccc1F` [Example 7.02.242], for which the EC50 came out at 45 nM. For `Cc1nc2c(o1)CN(C(=O)Cn1nc(-c3ccc(F)c(C)c3)cc1C)CC2` [Example 7.01.061] the value was 163 nM. Next, `CCc1cc(-c2cccc(C)c2)nn1CC(=O)N1CC=C(c2ncc(OC)cn2)CC1` [Example 7.02.082]: 291 nM. Next, `Cc1nc2c(s1)CCN(C(=O)Cn1nc(-c3ccc(F)c(C)c3)cc1-c1ccccc1)CC2` [Example 7.02.015]: 15 nM; `Cc1nc2c(o1)CN(C(=O)Cn1nc(-c3ccc(OC(F)F)cn3)cc1-c1ccccc1)C2` [Example 7.02.244]: 48 nM; `Cc1cc(-c2cc(C)n(CC(=O)N3CCc4nc(N)sc4CC3)n2)ccc1F` [Example 7.01.060]: 101 nM. On to `O=C(Cn1nc(-c2ccccc2)cc1-c1ccccc1)N1CCC(c2ncc(Cl)cn2)CC1` [Example 7.01.001, 2-(3,5-diphenyl-pyrazol-1-yl)-1-(4-(5-chloro-pyrimidin-2-yl)-1-piperidinyl)-ethanon], for which the EC50 came to 1430 nM. For `Cc1nc(N2CCN(C(=O)Cn3nc(-c4ccc(OC(F)F)cc4)cc3-c3ccccc3)CC2)no1` [Example 7.02.224], the EC50 was determined as 2 nM. Next, `Cc1nc2c(s1)CCN(C(=O)Cn1nc(-c3ccc(C(F)F)cc3)cc1-c1ccccc1)CC2` [Example 7.02.259]: 10 nM. Next, `CCc1cc(-c2ccc(F)c(C)c2)nn1CC(=O)N1CCN(c2nc(C)co2)CC1` [Example 7.02.167]: 370 nM; `Cc1nc(C2CCN(C(=O)Cn3nc(-c4ccccc4)cc3-c3ccccc3)CC2)oc1C` [Example 7.02.008]: 997 nM; `O=C(Cn1nc(-c2ccccc2)cc1-c1ccccc1)N1CCN(c2nc3ccccc3o2)CC1` [Example 7.02.009]: 220 nM.

On to `Cc1nnc(C2CCN(C(=O)Cn3nc(-c4cccc(C#N)c4)cc3-c3ccccc3)CC2)o1` [Example 7.02.193], for which the EC50 turned out to be 290 nM.

As for `CCc1cc(-c2ccc(F)c(C)c2)nn1CC(=O)N1CCN(c2nccs2)CC1` [Example 7.02.217], the EC50 is 56 nM. For `Cc1noc(N2CCN(C(=O)Cn3nc(-c4ccc(F)c(C)c4)cc3-c3ccccc3)CC2)n1` [Example 7.02.169] the value was 20 nM; for `CCc1cc(-c2cccc(Cl)c2)nn1CC(=O)N1CC=C(c2ncc(C)o2)CC1` [Example 7.02.107], 39 nM; for `COc1cc(-c2cc(-c3ccccc3)n(CC(=O)N3Cc4nc(C)sc4C3)n2)ccc1F` [Example 7.02.150], 28 nM. For `Cc1nc2c(o1)CCN(C(=O)Cn1nc(-c3ccc(F)c(C)c3)cc1-c1ccccc1)CC2` [Example 7.02.106] the value was 10 nM; for `CCc1cc(-c2ccc(F)cc2)nn1CC(=O)N1Cc2nc(C)sc2C1` [Example 7.02.031], 1240 nM; for `CCc1cc(-c2ccc(C)c(C)c2)nn1CC(=O)N1CC=C(c2ncc(OC)cn2)CC1` [Example 7.02.076], 293 nM.

For the molecule `COc1ccc(-c2cc(C(C)C)n(CC(=O)N3CCc4nc(C)sc4CC3)n2)cc1C` [Example 7.02.047], the concentration for a half-maximal effect (EC50) turned out to be 221 nM. Take `COc1cc(C2CCN(C(=O)Cn3nc(-c4ccc(F)c(C)c4)cc3-c3ccccc3)CC2)ncn1` [Example 7.02.021]: the EC50 was 55 nM. Consider `Cc1nnc(C2CCN(C(=O)Cn3nc(-c4ccc(C)c(C)c4)cc3-c3ccccc3)CC2)o1` [Example 7.02.085], for which the EC50 was 42 nM. Next, `Cc1cc(-c2cc(-c3ccccc3)n(CC(=O)N3Cc4cccnc4C3)n2)ccc1F` [Example 7.02.229]: 31 nM.

Regarding `COc1ccc2c(n1)CCN(C(=O)Cn1nc(-c3ccc(F)c(C)c3)cc1-c1ccccc1)CC2` [Example 7.01.091], the 50% effective concentration (EC50) was found to be 37 nM. Regarding `COc1ccc2c(c1)CN(C(=O)Cn1nc(-c3ccccc3)cc1-c1ccccc1)C2` [Example 7.01.004], the EC50 is 390 nM. Next, `CCc1cc(-c2ccc(F)c(C)c2)nn1CC(=O)N1CCc2ccc(C(=O)OC)cc2CC1` [Example 7.01.070]: 128 nM.

As for `CCc1cc(-c2ccc(F)c(C)c2)nn1CC(=O)N1CC=C(c2ncc(C)o2)CC1` [Example 7.02.205], the concentration for a half-maximal effect (EC50) came out at 18 nM. With `Cc1cc(-c2cc(-c3ccccc3)n(CC(=O)N3CCc4nc5ccccc5c(C)c4CC3)n2)ccc1F` [Example 7.01.084], the EC50 was found to be 34 nM. For `COC(=O)c1ccc2c(c1)CCN(C(=O)Cn1nc(-c3ccc(F)c(C)c3)cc1-c1ccccc1)CC2` [Example 7.01.088] the value was 29 nM; for `CCc1cc(-c2ccc(F)c(C)c2)nn1CC(=O)N1CCC(c2nnc(COC)o2)CC1` [Example 7.02.228], 398 nM; for `Cc1cc(-c2cc(-c3ccccc3)n(CC(=O)N3CCC(c4ncccn4)CC3)n2)ccc1F` [Example 7.02.016], 110 nM.

For `COc1cc2c(cc1OC)CN(C(=O)Cn1nc(-c3ccccc3)cc1-c1ccccc1)CC2` [Example 7.02.006], the EC50 was 1950 nM.

Consider `Cc1nc2c(s1)CCN(C(=O)Cn1nc(-c3ccc(F)cc3)cc1-c1ccc(F)cc1)CC2` [Example 7.02.010], for which the EC50 was found to be 13 nM. For `COCc1cc(-c2ccc(F)c(C)c2)nn1CC(=O)N1CCc2nc(C)sc2CC1` [Example 7.01.055] the value was 53 nM; for `Cc1nc2c(s1)CN(C(=O)Cn1nc(-c3cccc(C#N)c3)cc1-c1ccccc1)C2` [Example 7.02.191], 80 nM. Turning to `CCNC(=O)Nc1nc2c(s1)CN(C(=O)Cn1nc(-c3ccccc3)cc1-c1ccccc1)CC2` [Example 7.01.041], the EC50 came to 1550 nM. Turning to `Cc1cc(-c2cc(-c3ccccc3)n(CC(=O)N3CCc4nc(N)sc4CC3)n2)ncc1F` [Example 7.02.156], the EC50 turned out to be 170 nM.

Consider `COc1cc(C2=CCN(C(=O)Cn3nc(-c4ccc(F)c(C)c4)cc3-c3ccccc3)CC2)ncn1` [Example 7.02.022], for which the EC50 turned out to be 11 nM.
